Patent EP4711377A1, “STEROID COMPOUND, PREPARATION METHOD THEREFOR, AND USE THEREOF” (Shujing Biopharma Co., Ltd, priority 2023, dated 2024)

What was measured:
GABAa receptor (α1β2γ2) = GABAa receptor (α1β2γ2) (Homo sapiens, UniProt P14867+P47870); assay: in vitro GABAa receptor (α1β2γ2) cellular activity assay, manual whole-cell patch clamp, enhancement of currents induced by 1 µM GABA; type: cell-based; conditions: CHO cells; for activation at 0.1 µM: read-out: Agonist ratio
Protocol: The cells used in this experiment were derived from a CHO cell line that stably expressed normal GABAa receptor functions after transfection with human GABAa receptor α1, β2, and γ2 subunit cDNAs. The cell line was constructed by B'sys GmbH. The cells were cultured in a medium (purchased from Invitrogen) containing the following components: DMEM culture medium; 10% (v/v) inactivated fetal bovine serum; 5 µg/mL Puromycin; 250 µg/mL Hygromycin B; and 100 µg/mL Zeocin. The cells were grown in culture dishes containing the above medium and cultured in an incubator at 37 °C with 5% CO2. 12 h to 24 h before the electrophysiological experiment, the cells were transferred onto circular glass slides placed in culture dishes, and were grown under the same medium and culture conditions as above. The density of cells on each circular glass slide was required to meet the requirement that the overwhelming majority of cells were independent and individual.
In this experiment, a manual patch-clamp system HEKA EPC10 USB signal amplifier and digital conversion system (purchased from HEKA Electronics, Germany) were used for whole-cell current recording. The circular glass slides with surface-grown CHO GABAa cells (see the cell culture and requirement section above) were taken out from the culture dishes and then placed into an electrophysiological recording chamber under an inverted microscope. The recording chamber was continuously perfused with extracellular fluid (approximately 1-2 mL/min). In the experiment, the whole-cell current recording technique was employed to record chloride ion currents of GABAa channels. 1 µM GABA was used to activate chloride ion currents of GABAa channels on each cell as an initial control (the reason for using 1 µM GABA concentration was that: this concentration was an effective activation concentration for the GABAa ion channel agonist GABA on the cells used in this experiment, falling between 10% and 20%). Unless otherwise specified, the experiment was performed at conventional room temperature (about 25 °C), and only cells meeting the electrophysiological recording criteria were adopted. In the experiment, the cells were ruptured and sealed, and were clamped at -80 mV after entering a whole-cell state. 1 µM GABA acted on the cells through the drug perfusion system to induce chloride ion currents of GABAa channels; the action time was about 4 s, and the current magnitude was used as the initial control value. Subsequently, the cells were perfused and incubated with the test concentration compound for 3 min, and then a mixed solution of 1 µM GABA and the corresponding test concentration compound was applied to act on the cells to induce currents, so as to observe the enhancing effect of the test compound on the currents induced by 1 µM GABA. When the cell state stabilized, the test compound would be applied from low to high concentrations to act on the same cell. In the experiment, to avoid current reduction caused by desensitization of GABAa ion channels, the interval time for the test substance acting on the cells through the drug perfusion system was at least 180 s.
The experimental data were analyzed using data analysis software provided by HEKA Patchmaster, Microsoft Excel, and Graphpad Prism.

[1] = test system: mice with PTZ-induced convulsions; assay: in vivo efficacy experiment in PTZ-induced epilepsy mouse model; set-up: species or system C57 mice; conditions: for Survival rate: 60 min before PTZ 120 mg/kg s.c., 30 min observation; for Number of clonic seizures / Number of tonic seizures / Clonic seizure latency period / Tonic seizure latency period: Mean ± SEM; for Clonic seizure latency period / Tonic seizure latency period: no seizure in 30 min recorded as 1800 s; for protective effects against acute epileptic seizures: conclusion in words
Protocol: Male C57 mice, purchased from SPF (Suzhou) Biotechnology Co., Ltd.
PTZ: a 120 mg/kg PTZ solution (administration volume: 10 mL/kg) was prepared with normal saline as the solvent.
Test compounds: solutions of the test compounds at 3/1/0.3 mg/kg (administration volume: 10 mL/kg) were prepared with Vehicle in section 1.4 as the solvent.
One hour before the test, the experimental animals were transferred into an operation room for acclimation.
The mice were randomly grouped, marked, and weighed, with 10 mice in each group. At 60 min before PTZ administration, the test compounds and Vehicle were separately orally administered.
The PTZ solution was administered subcutaneously before experimental observation, and this time point was recorded as the observation starting point.
Immediately after PTZ administration, the animals were placed in observation boxes and observed for 30 min. The following observations of the animals were recorded:
Clonic seizure: the animal has a generalized myoclonus that lasts for more than 3 s and is accompanied by falling.
Tonic seizure: the limbs are straightened at a 90° angle to the torso.
All metrology data were expressed as mean ± standard error of mean (Mean ± SEM), and the Prism 8.0 statistical software was used for data testing and analysis.

[2] = in vivo pharmacokinetic experiment in mice; set-up: species or system ICR mice; conditions: mouse, oral intragastric administration 10 mg/kg, single, plasma
Protocol: Male ICR mice were subjected to oral intragastric administration. The plasma concentrations of the compounds of the present disclosure in the mice were measured, the PK parameters were calculated, and pharmacokinetic evaluation was performed on the compounds of the present disclosure.
Drug preparation: according to the weight of the weighed drug, the preparation volume was calculated; 5% of DMSO and 5% of HS-15 were added sequentially; after the drug was fully dissolved, 90% of a 20% aqueous β-cyclodextrin solution was added, and the mixture was well mixed for later use.
Route of administration: oral intragastric administration, at a dose of 10 mg/kg.
Administration frequency and duration: single administration.
ICR mice were stratified according to body weight and then randomly grouped, with 9 mice per group. The mice were fasted overnight prior to the experiment. The mice were subjected to oral intragastric administration. At 0 h, 0.167 h, 0.333 h, 0.5 h, 1 h, 2 h, 4 h, 6 h, 8 h, 12 h, and 24 h, 50 µL of blood was collected from the fundus vein of each mouse into a sample tube containing heparin sodium as an anticoagulant, and then the tube was placed in wet ice and centrifuged at 4000 r·min^-1 for 10 min. The plasma was separated, and cryopreserved in a refrigerator at -80 °C for testing.
The concentrations of the plasma samples were measured by high-performance liquid chromatography-tandem mass spectrometry (LC-MS/MS). The retention times of the compounds and internal standard, chromatographic acquisitions, and integrals of chromatograms were processed using the software Analyst (AB SCIEX), and statistical analysis of the data was performed using the software Microsoft office. The plasma concentrations were processed using a non-compartmental model of the pharmacokinetic software WinNonlin™ Version 6.3 (Pharsight, Mountain View, CA), and the pharmacokinetic parameters were calculated using a linear log-trapezoidal method. Table 4. Results of pharmacokinetic experiment in mice

[3] = single concentration 0.1 µM, relative enhancement amplitude of GABAa receptor currents induced by 1 µM GABA

GABAa receptor (α1β2γ2), sequence (P14867 28-456): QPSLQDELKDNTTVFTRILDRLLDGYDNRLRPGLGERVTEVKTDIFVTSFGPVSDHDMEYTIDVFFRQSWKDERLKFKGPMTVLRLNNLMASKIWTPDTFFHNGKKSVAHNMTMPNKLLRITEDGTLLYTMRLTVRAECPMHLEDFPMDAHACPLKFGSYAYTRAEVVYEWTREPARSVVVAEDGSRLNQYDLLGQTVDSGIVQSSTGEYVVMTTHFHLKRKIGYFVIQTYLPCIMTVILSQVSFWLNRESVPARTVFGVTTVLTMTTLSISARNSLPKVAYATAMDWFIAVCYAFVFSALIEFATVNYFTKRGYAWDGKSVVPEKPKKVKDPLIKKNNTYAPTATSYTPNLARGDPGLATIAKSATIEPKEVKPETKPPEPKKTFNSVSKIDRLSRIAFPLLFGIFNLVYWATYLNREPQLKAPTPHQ
GABAa receptor (α1β2γ2), sequence (P47870 25-512 limits assumed): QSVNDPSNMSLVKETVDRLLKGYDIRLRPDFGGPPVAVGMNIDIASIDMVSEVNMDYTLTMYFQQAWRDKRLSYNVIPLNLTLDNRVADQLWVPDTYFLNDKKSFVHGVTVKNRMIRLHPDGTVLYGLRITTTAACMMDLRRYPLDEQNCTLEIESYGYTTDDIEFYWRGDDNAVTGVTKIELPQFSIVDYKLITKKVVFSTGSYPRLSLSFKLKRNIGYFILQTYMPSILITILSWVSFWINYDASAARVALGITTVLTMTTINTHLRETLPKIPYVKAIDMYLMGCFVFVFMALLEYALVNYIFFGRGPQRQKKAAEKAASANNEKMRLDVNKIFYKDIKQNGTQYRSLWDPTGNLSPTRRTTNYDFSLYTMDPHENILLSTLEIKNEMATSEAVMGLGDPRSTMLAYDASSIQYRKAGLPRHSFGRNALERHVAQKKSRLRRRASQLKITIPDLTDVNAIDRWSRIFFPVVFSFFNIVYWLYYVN
GABAa receptor (α1β2γ2), sequence (P18507 40-475 partner): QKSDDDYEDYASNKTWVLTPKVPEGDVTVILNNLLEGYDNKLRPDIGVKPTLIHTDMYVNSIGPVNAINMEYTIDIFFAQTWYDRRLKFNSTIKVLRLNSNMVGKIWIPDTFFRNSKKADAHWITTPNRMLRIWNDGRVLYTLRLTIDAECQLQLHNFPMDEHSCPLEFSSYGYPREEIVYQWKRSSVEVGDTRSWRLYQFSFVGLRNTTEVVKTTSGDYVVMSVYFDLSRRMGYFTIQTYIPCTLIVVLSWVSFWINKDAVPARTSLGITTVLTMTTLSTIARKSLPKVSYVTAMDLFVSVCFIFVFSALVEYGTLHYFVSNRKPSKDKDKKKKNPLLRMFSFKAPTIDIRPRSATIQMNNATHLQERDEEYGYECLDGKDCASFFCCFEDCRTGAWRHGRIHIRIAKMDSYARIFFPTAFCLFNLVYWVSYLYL

Q: With `C[C@@H]1C[C@H](C(=O)Cn2cncn2)[C@@]2(C)CC[C@H]3[C@@H](CC[C@@H]4C[C@](C)(O)[C@@H](C)C[C@@H]43)[C@H]12` [Example 6, 1-((2S,3S,5R,8R,9R,10S,13S,14S,15R,17S)-3-Hydroxy-2,3,13,15-tetramethylhexadecahydro-1H-cyclopenta[a]phenanthren-17-yl)-2-(1H-1,2,4-triazol-1-yl)ethan-1-one] as the compound, how does the activation at 0.1 µM (GABAa receptor (α1β2γ2); [3]) read?
A: 380%

Q: What about the Survival rate ([1]; dose 1 mg/kg p.o.) of the same compound?
A: 90%

Q: And the Survival rate ([1]; dose 3 mg/kg p.o.)?
A: 100%

Q: What about the “Number of clonic seizures” value ([1]; dose 3 mg/kg p.o.) of the same compound?
A: 0.8±0.2

Q: And the “Number of tonic seizures” value ([1]; dose 3 mg/kg p.o.)?
A: 0.0±0.0

Q: What about the “Clonic seizure latency period” value ([1]; dose 3 mg/kg p.o.) of the same compound?
A: 1132.4 ± 195.9 s

Q: What about the “Tonic seizure latency period” value ([1]; dose 3 mg/kg p.o.) of the same compound?
A: 1800.0 ± 0.0 s

Q: What about the “protective effects against acute epileptic seizures” value (“protective effects” for short) ([1]; low dose (1 mpk)) of the same compound?
A: significant protective effects

Q: With `C[C@@H]1C[C@H](C(=O)Cn2ncnn2)[C@@]2(C)CC[C@H]3[C@@H](CC[C@@H]4C[C@H](O)[C@@H](C)C[C@@H]43)[C@H]12` [Example 17, 1-((2S,3S,5R,8R,9R,10S,13S,14S,15R,17S)-3-Hydroxy-2,13,15-trimethylhexadecahydro-1H-cyclopenta[a]phenanthren-17-yl)-2-(2H-tetrazol-2-yl)ethan-1-one] as the compound, how does the activation at 0.1 µM (GABAa receptor (α1β2γ2); [3]) read?
A: 217%

Q: What does the source list for `C[C@H]1C[C@H]2[C@H](CC[C@@H]3[C@@H]2CC[C@]2(C)[C@@H](C(=O)Cn4cc(C#N)cn4)CC[C@@H]32)C[C@]1(C)O` [Example 19, 1-(2-((2S,3S,5R,8R,9R,10S,13S,14S,17S)-3-Hydroxy-2,3,13-trimethylhexadecahydro-1H-cyclopenta[a]phenanthren-17-yl)-2-oxoethyl)-1H-pyrazole-4-carbonitrile]?
A: AUC(0-t) ([2]; male, ICR): 26700 ng·h/mL; Cmax ([2]; male, ICR): 1650 ng/mL; Tmax ([2]; male, ICR): 8 h; half-life ([2]; male, ICR): > 8 h

Q: Which Survival rate ([1]; dose 0.3 mg/kg p.o.) does the source give for `C[C@@H]1C[C@H](C(=O)Cn2nc(C#N)cc2C#N)[C@@]2(C)CC[C@H]3[C@@H](CC[C@@H]4C[C@](C)(O)[C@@H](C)C[C@@H]43)[C@H]12` [Example 5, 1-(2-((2S,3S,5R,8R,9R,10S,13S,14S,15R,17S)-3-Hydroxy-2,3,13,15-tetramethylhexadecahydro-1H-cyclopenta[a]phenanthren-17-yl)-2-oxoethyl)-1H-pyrazole-3,5-dicarbonitrile] here?
A: 10%

Q: What about the Survival rate ([1]; dose 1 mg/kg p.o.) of the same compound?
A: 90%

Q: And the Survival rate ([1]; dose 3 mg/kg p.o.)?
A: 100%

Q: And the “Number of clonic seizures” value ([1]; dose 3 mg/kg p.o.)?
A: 0.6±0.2

Q: And the “Number of tonic seizures” value ([1]; dose 3 mg/kg p.o.)?
A: 0.0±0.0

Q: And the “Clonic seizure latency period” value ([1]; dose 3 mg/kg p.o.)?
A: 1133.7 ± 192.7 s

Q: And the “Tonic seizure latency period” value ([1]; dose 3 mg/kg p.o.)?
A: 1800.0 ± 0.0 s

Q: What about the “protective effects” value ([1]; extremely low dose (0.3 mpk)) of the same compound?
A: partial protective effects

Q: What about the “protective effects” value ([1]; low dose (1 mpk)) of the same compound?
A: significant protective effects

Q: Which Agonist ratio (GABAa receptor (α1β2γ2); [3]) does the source give for `C[C@@H]1C[C@H](C(=O)Cn2ccc(C(F)(F)F)n2)[C@@]2(C)CC[C@H]3[C@@H](CC[C@@H]4C[C@](C)(O)[C@@H](C)C[C@@H]43)[C@H]12` [Example 4, 1-((2S,3S,5R,8R,9R,10S,13S,14S,15R,17S)-3-Hydroxy-2,3,13,15-tetramethylhexadecahydro-1H. cyclopenta[a]phenanthren-17-yl)-2-(3-(trifluoromethyl)-1H-pyrazol-1-yl)ethan-1-one] here?
A: 626%

Q: For `C[C@@H]1C[C@H](C(=O)Cn2cc(C#N)cn2)[C@@]2(C)CC[C@H]3[C@@H](CC[C@@H]4C[C@](C)(O)[C@@H](C)C[C@@H]43)[C@H]12` [Example 2, 1-(2-((2S,3S,5R,8R,9R,10S,13S,14S,15R,17S)-3-Hydroxy-2,3,13,15-tetramethylhexadecahydro-1H-cyclopenta[a]phenanthren-17-yl)-2-oxoethyl)-1H-pyrazole-4-carbonitrile], which EC50 (GABAa receptor (α1β2γ2); positive modulator enhancing GABAa receptor currents induced by 1 µM GABA, read-out: EC50) is on record?
A: 22 nM

Q: What about the AUC(0-t) [2] of the same compound?
A: 16600 ng·h/mL

Q: What about the Cmax [2] of the same compound?
A: 1240 ng/mL

Q: And the Tmax [2]?
A: 4 h

Q: And the half-life [2]?
A: 7.38 h

Q: Which results are given for `C[C@@H]1C[C@H](C(=O)Cn2nccn2)[C@@]2(C)CC[C@H]3[C@@H](CC[C@@H]4C[C@](C)(O)[C@@H](C)C[C@@H]43)[C@H]12` [Example 7, 1-((2S,3S,5R,8R,9R,10S,13S,14S,15R,17S)-3-Hydroxy-2,3,13,15-tetramethylhexadecahydro-1H-cyclopenta[a]phenanthren-17-yl)-2-(2H-1,2,3-triazol-2-yl)ethan-1-one]?
A: activation at 0.1 µM (GABAa receptor (α1β2γ2); [3]): 794%; Survival rate ([1]; dose 3 mg/kg p.o.): 100%

Q: Which Survival rate ([1]; dose 3 mg/kg p.o.) does the source give for `C[C@@H]1C[C@H](C(=O)Cn2cnnn2)[C@@]2(C)CC[C@H]3[C@@H](CC[C@@H]4C[C@](C)(O)[C@@H](C)C[C@@H]43)[C@H]12` [Example 10, 1-((2S,3S,5R,8R,9R,10S,13S,14S,15R,17S)-3-Hydroxy-2,3,13,15-tetramethylhexadecahydro-1H-cyclopenta[a]phenanthren-17-yl)-2-(1H-tetrazol-1-yl)ethan-1-one] here?
A: 100%

Q: With “1-((2S,3S,5R,8R,9R,108,13S,14S,15R,17S)-3-Hydroxy-2,3,13,15-tetramethylhexadecahydro-1H-cyclopenta[a]phenanthren-17-yl)-2-(1H-1,2,3-triazol-1-yl)ethan-1-one [Example 8]” as the compound, how does the Survival rate ([1]; dose 3 mg/kg p.o.) read?
A: 100%
